# Assay results taken from patent US5494932A, “Sulfonic stilbene derivatives in the treatment of viral disease” (Merrell Dow Pharmaceuticals Inc., priority 1991, dated 1996).
# “Also recorded” adds a separate entry of the source. Where two headings read alike, the source gives them in different places.
# How the values were obtained:
# [1] = tested on: HIV-1 strain RF in MT-4 cells; test: Growth of HIV-1 RF in MT-4 cells; type: cell-based, HIV-1 (human MT-4 cells)
# From the text: (§1) When evaluated in the human T cell line JM acutely infected with the GB8 virus, DIDS, H2 DIDS and SITS (Table I) suppressed virus-induced multinucleated giant cell formation (syncytia). […] We also examined the antiviral properties of these compounds in a second host-cell/virus system, i.e., the highly CD4+ C8166 cells infected with the Haitian strain of HIV-1, RF.
# (§2) The cell lines used were the semi-mature human lymphoblastoid leukemia T cell line JM, the human T-lymphoblastoid C8166 cell line, the human cutaneous T cell lymphoma line H9 and, the human T cell transformed line MT-4. Stocks of HIV-1 strains RF and GB8 (kindly provided by Dr. Graham Farrar, Center for Applied Microbiological Research, Porton Dawn, England) were prepared from chronically infected H9 cells and acutely infected JM cells, respectively. Virus stocks consisted of cell-free growth medium (RPMI 1640 plus 10% fetal calf serum) containing freshly shed virus. Virus titres were determined by a standard plaque reduction assay.
# [2] = tested on: HIV-1 strain GB8 in JM cells; test: Established HIV-1 (GB8) infection of JM cells, post-infection addition: syncytia and p24 antigen; type: cell-based, HIV-1 (human T cell line JM); conditions: 100 μg/ml
# MT-4 cells = test: Cytotoxicity in MT-4 cells, tetrazolium reduction assay; type: cell-based, human
# [3] = tested on: HIV-1 strain GB8 in JM cells; test: Acute HIV-1 (GB8) infection of JM cells: syncytial counts and p24 antigen; type: cell-based, HIV-1 (human T cell line JM); conditions: for Mean Syncytial Counts: at day 4 p.i.; for inhibition of p24 viral core antigen / virus-induced multinucleated giant cell formation (syncytia): JM cells acutely infected with GB8; for order of antiviral potency: in all three host cell/virus systems (JM/GB8, C8166/RF, MT-4/RF)
# From the text: as §1, §2
# Virus stocks (strains RF or GB8) were diluted into growth medium containing various concentrations of DIDS, H2 DIDS or SITS. The required number of cells were then immediately added and the virus allowed to absorb for 2 hours at 37° C. to give a multiplicity of infection (MOI) of 0.001 infectious units/cell. The virus-infected cells were pelleted, washed three times in phosphate buffered saline (PBS), and resuspended in fresh growth medium containing the appropriate concentrations of stilbene disulfonic acids. Cells were then distributed into 24-well culture plates (Falcon) and assayed as described below for virus infection. Alternatively, cells were first infected with HIV-1 (strains RF or GB8) for 2 hours at 37° C. at the above MOI. After extensive washing, cells were replated into fresh growth medium containing various concentrations of stilbene disulfonic acids. In the above experiments, syncytia were scored between 2 and 4 days postinfection (p.i.) in triplicate using an Olympus CK2 inverted microscope. The culture fluids were recovered between 3 and 5 days p.i., clarified by low speed centrifugation (2,000 rpm) for 5 minutes and the level of HIV-1 p24 core antigen in the supernatants was determined by p24 antigen ELISA (Coulter). The concentrations of stilbene disulfonic acids giving 50% inhibition of HIV-1 growth (IC50) were determined from the dose-response curves by linear regression analysis.
# Protocol: JM cells were infected with HIV-1 to give a multiplicity of infection of 0.001. Virus adsorption was for 2 hours at room temperature. The cells were washed and distributed into wells containing different concentrations of test compounds and incubated. After 2 days the cells were observed and syncytia were counted. The cell-free supernatant fluids were harvested at 4 and 6 days post infection and assayed for levels of p24 viral core antigen and after 6 days the supernatants were also titrated to determine levels of infectivity.
# [4] = tested on: virus-induced cell fusion (gp120-CD4 dependent); test: Cell fusion after pretreatment of uninfected C8166 cells, washing and mixing with chronically infected H9 cells; type: cell-based, HIV-1; human H9 and C8166 cells; conditions: 100 μg/ml; overnight pretreatment, washed; 6 hour observation
# Experimental: In the next experiments, CD4+ C8166 cells were pretreated overnight with either DIDS (100 μg/ml), SITS (100 μg/ml) or drug-free medium. Unabsorbed compounds were removed by repeated washings and chronically infected H9 cells were then added. […] Thus, cell washing prior to mixing with the H9 cells oblated the protective effect observed above (FIG. 1, Panel E) when 500,000 MW dextran sulfate was continually present in the assay.
# Pretreatment of CD4+ C8166 cells with DIDS blocks fusion with chronically infected H9 cells. In this experiment, C8166 cells were pretreated overight with various stilbene disulfonic acids or drug-free medium (fusion control). The cells were washed, incubated with chronically infected H9 cells and syncytia were photographed at 6 hours post-mixing. Pretreatment conditions were as follows: […]: 100 μg/ml SITS; FIG. 2B: drug-free medium; and FIG. 2C: 100 μg/ml DIDS.
# In pretreatment experiments, CD4^+ C8166 cells were maintained in serum-free medium (RPMI 1640 plus human transferrin 50 μg/ml, bovine insulin 20 μg/ml, bovine serum albumin 2 mg/ml) and were exposed to compound by overnight incubation. Treated cells were washed twice in fresh serum-free medium and then cocultured with chronically infected H9 cells in serum-free medium. Otherwise, cell numbers, assay conditions and scoring of syncytia were as described above.
# Protocol: C8166 cells were pretreated for 2.5 hours with either DIDS, SITS or H2 DIDS (at 500 and 250 μg/ml). The cells were then washed three times and mixed with H9 cells chronically infected with HIV-1. Cell fusion was quantified after 4 and 24 hours.
# [5] = Human immunodeficiency virus 1, 96 h, 12.5 μg/ml, read-out: p24 4 days p.i., % Control
# [6] = Human immunodeficiency virus 1, 96 h, 25 μg/ml, read-out: p24 4 days p.i., % Control
# [7] = Human immunodeficiency virus 1, 96 h, 50 μg/ml, read-out: p24 4 days p.i., % Control
# [8] = Human immunodeficiency virus 1, 96 h, 100 μg/ml, read-out: p24 4 days p.i., % Control
# [9] = Human immunodeficiency virus 1, 144 h, read-out: P24 Antigen % Virus Control
# [10] = Human immunodeficiency virus 1, 144 h, 12.5 μg/ml, read-out: p24 6 days p.i., % Control
# [11] = Human immunodeficiency virus 1, 144 h, 25 µg/mL, GB8 in JM cells, day 6 p.i., read-out: P24 Antigen % Virus Control
# [12] = Human immunodeficiency virus 1, 144 h, 25 μg/ml, read-out: p24 6 days p.i., % Control
# [13] = Human immunodeficiency virus 1, 144 h, 50 µg/mL, GB8 in JM cells, day 6 p.i., read-out: P24 Antigen % Virus Control
# [14] = Human immunodeficiency virus 1, 144 h, 50 μg/ml, read-out: p24 6 days p.i., % Control
# [15] = Human immunodeficiency virus 1, 144 h, 100 µg/mL, GB8 in JM cells, day 6 p.i., read-out: P24 Antigen % Virus Control
# [16] = Human immunodeficiency virus 1, 144 h, 100 μg/ml, read-out: p24 6 days p.i., % Control
# [17] = Human immunodeficiency virus 1, 96 h, read-out: p24 4 days p.i., % Control
SMILES,Mean Syncytia 51 hrs ([2]; time of addition 0h),Mean Syncytia 51 hrs ([2]; time of addition 24h),Mean Syncytial Counts 2 Days p.i. ([3]; 3 μg/ml),Mean Syncytial Counts ([3]; 6 μM),Mean Syncytial Counts 2 Days p.i. ([3]; 6 μg/ml),Mean Syncytial Counts ([3]; 12 μM),Mean Syncytial Counts 2 Days p.i. ([3]; 12.5 μg/ml),p24 4 days p.i. ([3]; 12.5 μg/ml),p24 6 days p.i. ([3]; 12.5 μg/ml),Mean Syncytial Counts ([3]; 25 μM),Mean Syncytial Counts 2 Days p.i. ([3]; 25 μg/ml),p24 4 days p.i. ([3]; 25 μg/ml),p24 6 days p.i. ([3]; 25 μg/ml),Mean Syncytial Counts ([3]; 50 μM),Mean Syncytial Counts 2 Days p.i. ([3]; 50 μg/ml),p24 4 days p.i. ([3]; 50 μg/ml),p24 6 days p.i. ([3]; 50 μg/ml),Mean Syncytial Counts ([3]; 100 μM),Mean Syncytial Counts 2 Days p.i. ([3]; 100 μg/ml),p24 6 days p.i. ([3]; 100 μg/ml),also measured
"O=S(=O)(O)c1cc(N=C=S)ccc1C=Cc1ccc(N=C=S)cc1S(=O)(=O)O [DIDS, 4,4'-diisothiocyanatostilbene-2,2'-disulfonic acid]",0,0,114,114,101,101,31,110000 pg/mL,2.44 × 10^6 pg/m.,31,0,4700 pg/mL,1.21 × 10^6 pg/m.,0,0,130 pg/mL,1.23 × 10^4 pg/m.,0,0,4.87 × 10^2 pg/m.,"growth of RF in MT-4 cells / antiviral activity [1]: blocked the growth of RF; cytotoxicity at antiviral concentrations (MT-4 cells): noncytotoxic; p24 4 days p.i. ([3]; 100 μg/ml): None detected; Mean Syncytial Counts ([3]; 200 μM): 0; activity at 12.5 µg/mL [3, 5]: > 100%; activity at 25 µg/mL [3, 6]: 6.4%; activity at 50 µg/mL [3, 7]: 0.18%; activity at 100 µg/mL [3, 8]: 0%; activity at 200 µM [3, 9]: 0.02%; activity at 12.5 µg/mL [3, 10]: > 100%; activity at 25 µg/mL [3, 11]: 100%; activity at 25 µg/mL [3, 12]: 56%; activity at 50 µg/mL [3, 13]: 6.4%; activity at 50 µg/mL [3, 14]: 0.56%; activity at 100 µg/mL [3, 15]: 0.56%; activity at 100 µg/mL [3, 16]: 0.02%; inhibition of p24 viral core antigen [3]: dose-dependent inhibition; virus-induced multinucleated giant cell formation (syncytia) [3]: suppressed; order of antiviral potency [3]: DIDS>H2 DIDS>>SITS; syncytia / fusion after pretreatment [4]: remained syncytia-free; also recorded: blocks fusion"
"O=S(=O)(O)c1cc(N=C=S)ccc1CCc1ccc(N=C=S)cc1S(=O)(=O)O [H2 DIDS, 4,4'-diisothiocyanatodihydrostilbene-2,2'-disulfonic acid]",0,0,107,107,97,97,71,94000 pg/mL,8.51 × 10^6 pg/m.,71,7,32000 pg/mL,2.66 × 10^6 pg/m.,7,0,70 pg/mL,3.77 × 10^2 pg/m.,0,0,6.48 × 10^2 pg/m.,"cytotoxicity at antiviral concentrations (MT-4 cells): noncytotoxic; Mean Syncytial Counts ([3]; 200 μM): 0; activity at 50 µg/mL [3, 17]: 0.01%; activity at 12.5 µg/mL [3, 5]: > 100%; activity at 25 µg/mL [3, 6]: 43%; activity at 100 µg/mL [3, 8]: 0%; activity at 200 µM [3, 9]: 0%; activity at 12 µg/mL ([3]; Human immunodeficiency virus 1, 144 h, 12 µg/mL, GB8 in JM cells, day 6 p.i., read-out: P24 Antigen % Virus Control): 100%; activity at 12.5 µg/mL [3, 10]: > 100%; activity at 25 µg/mL [3, 11]: 100%; activity at 25 µg/mL [3, 12]: > 100%; activity at 50 µg/mL [3, 13]: 43%; activity at 50 µg/mL [3, 14]: 0.02%; activity at 100 µg/mL [3, 15]: 0.01%; activity at 100 µg/mL [3, 16]: 0.03%"
"CC(=O)Nc1ccc(C=Cc2ccc(N=C=S)cc2S(=O)(=O)O)c(S(=O)(=O)O)c1 [SITS, 4-acetamido-4'-isothiocyanatostilbene-2,2'-disulfonic acid]",4,35,93,93,72,72,63,185000 pg/mL,1.51 × 10^6 pg/m.,63,63,153000 pg/mL,1.26 × 10^6 pg/m.,63,15,62500 pg/mL,2.45 × 10^5 pg/m.,15,0,2.2 × 10^4 pg/m.,"growth of RF in MT-4 cells / antiviral activity [1]: weak antiviral activity; p24 4 days p.i. ([3]; 100 μg/ml): 1140 pg/mL; Mean Syncytial Counts ([3]; 200 μM): 0; activity at 25 µg/mL [3, 17]: 100%; activity at 12.5 µg/mL [3, 5]: 100%; activity at 50 µg/mL [3, 7]: 85%; activity at 100 µg/mL [3, 8]: 1.6%; activity at 200 µM [3, 9]: 1.6%; activity at 12.5 µg/mL [3, 10]: 69%; activity at 25 µg/mL [3, 12]: 58%; activity at 50 µg/mL [3, 13]: 100%; activity at 50 µg/mL [3, 14]: 11.2%; activity at 100 µg/mL [3, 15]: 85%; activity at 100 µg/mL [3, 16]: 1%; inhibition of p24 viral core antigen [3]: dose-dependent inhibition; virus-induced multinucleated giant cell formation (syncytia) [3]: suppressed; order of antiviral potency [3]: DIDS>H2 DIDS>>SITS; syncytia / fusion after pretreatment [4]: failed to block syncytia"
